Experimental data reported in patent US20260297081A1, “COMPOUNDS AND METHODS OF TREATING CANCERS” (Cullgen Inc., priority 2023, published 2026).

Target: CDK4 (Homo sapiens, UniProt P11802+Q16531)
Test: CDK4 percentage degradation in Calu-1 cells (Table 6)
Assay type: cell-based
Design: Cells that express cyclin D1-3 and CDK4/6 proteins were treated with heterobifunctional compounds; endogenous in cells; host or cells: Calu-1
Conditions: 16 hours; for inhibition at 0.04 µM: 40 nM; for inhibition at 0.2 µM: 200 nM
Summary of the method: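 Percentage degradation of Cyclin D1 and CDK4 derived from densitometry of ECL Western blots on lysates of Calu-1 cells. Treatment was 16 h with compound at either 40 nM or 200 nM.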

CDK4, sequence (P11802 2-303 limits assumed): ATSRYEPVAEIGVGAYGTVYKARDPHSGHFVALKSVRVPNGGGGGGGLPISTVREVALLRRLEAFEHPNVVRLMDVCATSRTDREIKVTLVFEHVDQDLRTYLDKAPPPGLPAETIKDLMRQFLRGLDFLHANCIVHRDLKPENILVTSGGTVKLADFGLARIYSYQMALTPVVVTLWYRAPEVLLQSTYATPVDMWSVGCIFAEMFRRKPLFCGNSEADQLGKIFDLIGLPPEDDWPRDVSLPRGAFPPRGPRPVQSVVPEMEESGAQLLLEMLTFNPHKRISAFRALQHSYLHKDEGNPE
CDK4, sequence (P24385 whole entry partner): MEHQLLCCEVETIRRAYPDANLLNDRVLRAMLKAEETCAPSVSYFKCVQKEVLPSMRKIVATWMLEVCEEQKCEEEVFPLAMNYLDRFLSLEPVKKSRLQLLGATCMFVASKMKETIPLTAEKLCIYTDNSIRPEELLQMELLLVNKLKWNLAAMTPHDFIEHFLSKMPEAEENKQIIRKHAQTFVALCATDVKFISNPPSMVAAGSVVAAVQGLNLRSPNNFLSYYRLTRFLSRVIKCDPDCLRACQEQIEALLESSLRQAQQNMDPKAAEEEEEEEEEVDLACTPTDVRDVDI
CDK4, sequence (Q16531 2-1140 limits assumed): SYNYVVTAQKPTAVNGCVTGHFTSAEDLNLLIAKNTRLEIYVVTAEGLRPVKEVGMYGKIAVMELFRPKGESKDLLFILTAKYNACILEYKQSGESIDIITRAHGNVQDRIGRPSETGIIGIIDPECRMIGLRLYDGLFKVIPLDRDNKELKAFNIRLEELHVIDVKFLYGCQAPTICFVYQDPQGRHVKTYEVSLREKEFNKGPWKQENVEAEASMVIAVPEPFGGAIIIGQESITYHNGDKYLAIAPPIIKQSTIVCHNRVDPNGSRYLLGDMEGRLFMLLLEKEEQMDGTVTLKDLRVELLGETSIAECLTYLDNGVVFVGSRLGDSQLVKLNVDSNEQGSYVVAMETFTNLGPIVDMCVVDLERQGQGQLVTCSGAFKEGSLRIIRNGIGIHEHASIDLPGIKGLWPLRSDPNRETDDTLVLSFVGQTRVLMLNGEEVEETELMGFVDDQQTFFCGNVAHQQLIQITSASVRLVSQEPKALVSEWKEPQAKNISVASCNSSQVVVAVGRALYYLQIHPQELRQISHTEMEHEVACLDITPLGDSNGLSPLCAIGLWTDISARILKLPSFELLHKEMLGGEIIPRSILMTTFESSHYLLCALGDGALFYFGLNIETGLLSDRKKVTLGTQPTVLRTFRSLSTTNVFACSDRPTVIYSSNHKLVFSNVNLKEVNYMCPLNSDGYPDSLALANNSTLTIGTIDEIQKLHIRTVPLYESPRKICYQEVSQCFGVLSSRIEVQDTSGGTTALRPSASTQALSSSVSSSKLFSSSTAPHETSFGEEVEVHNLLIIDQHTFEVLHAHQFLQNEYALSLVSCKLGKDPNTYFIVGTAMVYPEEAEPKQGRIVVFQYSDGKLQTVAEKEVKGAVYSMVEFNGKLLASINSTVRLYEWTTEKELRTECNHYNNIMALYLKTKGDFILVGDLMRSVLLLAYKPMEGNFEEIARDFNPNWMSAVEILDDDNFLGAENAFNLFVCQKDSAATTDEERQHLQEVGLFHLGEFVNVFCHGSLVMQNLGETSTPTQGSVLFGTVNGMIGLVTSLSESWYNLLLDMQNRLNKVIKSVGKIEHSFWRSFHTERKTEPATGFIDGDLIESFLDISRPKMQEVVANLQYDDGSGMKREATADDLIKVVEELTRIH

SMILES: CNc1ccc(C(=O)Nc2cccc(C3CC3)n2)c(NC2CC(NC(=O)CN3CCN(c4ccc(Nc5ncc6c(C)c(C(C)=O)c(=O)n(C7CCCC7)c6n5)nc4)CC3)C2)n1 (stereo not drawn) [CPD-240, 2-((3-(2-(4-(6-((6-acetyl-8-cyclopentyl-5-methyl-7-oxo-7,8-dihydropyrido[2,3-d]pyrimidin-2-yl)amino)pyridin-3-yl)piperazin-1-yl)acetamido)cyclobutyl)amino)-N-(6-cyclopropylpyridin-2-yl)-6-(methylamino)nicotinamide]
- inhibition at 0.04 µM: 30 to 50%
- inhibition at 0.2 µM: 30 to 50%

SMILES: CNc1ccc(C(=O)Nc2ccc(N(C)C)nn2)c(NC2CC(NC(=O)C(C)(C)N3CCN(c4ccc(Nc5ncc6c(C)c(C(C)=O)c(=O)n(C7CCCC7)c6n5)nc4)CC3)C2)n1 (stereo not drawn) [CPD-243, 2-((3-(2-(4-(6-((6-acetyl-8-cyclopentyl-5-methyl-7-oxo-7,8-dihydropyrido[2,3-d]pyrimidin-2-yl)amino)pyridin-3-yl)piperazin-1-yl)-2-methylpropanamido)cyclobutyl)amino)-N-(6-(dimethylamino)pyridazin-3-yl)-6-(methylamino)nicotinamide]
- inhibition at 0.04 µM: 50 to 80%
- inhibition at 0.2 µM: 50 to 80%

SMILES: [2H]C([2H])([2H])Nc1ccc(C(=O)Nc2ccc(N(C)C)nn2)c(NC2CC(NC(=O)CN3CCN(c4ccc(Nc5ncc6c(C)c(C(C)=O)c(=O)n(C7CCCC7)c6n5)nc4)CC3)C2)n1 (stereo not drawn) [CPD-245, 2-((3-(2-(4-(6-((6-acetyl-8-cyclopentyl-5-methyl-7-oxo-7,8-dihydropyrido[2,3-d]pyrimidin-2-yl)amino)pyridin-3-yl)piperazin-1-yl)acetamido)cyclobutyl)amino)-N-(6-(dimethylamino)pyridazin-3-yl)-6-((methyl-d3)amino)nicotinamide]
- inhibition at 0.04 µM: 30 to 50%
- inhibition at 0.2 µM: 50 to 80%

SMILES: CNc1ccc(C(=O)Nc2ncc(C)o2)c(NC2CC3(CC(NC(=O)CN4CCN(c5ccc(Nc6ncc7c(C)c(C(C)=O)c(=O)n(C8CCCC8)c7n6)nc5)CC4)C3)C2)n1 (stereo not drawn) [CPD-246, 2-((6-(2-(4-(6-((6-acetyl-8-cyclopentyl-5-methyl-7-oxo-7,8-dihydropyrido[2,3-d]pyrimidin-2-yl)amino)pyridin-3-yl)piperazin-1-yl)acetamido)spiro[3.3]heptan-2-yl)amino)-6-(methylamino)-N-(5-methyloxazol-2-yl)nicotinamide]
- inhibition at 0.04 µM: 50 to 80%
- inhibition at 0.2 µM: 50 to 80%

SMILES: CNc1ccc(C(=O)Nc2nc(C)c(C)o2)c(NC2CC3(CC(NC(=O)CN4CCN(c5ccc(Nc6ncc7c(C)c(C(C)=O)c(=O)n(C8CCCC8)c7n6)nc5)CC4)C3)C2)n1 (stereo not drawn) [CPD-247, 2-((6-(2-(4-(6-((6-acetyl-8-cyclopentyl-5-methyl-7-oxo-7,8-dihydropyrido[2,3-d]pyrimidin-2-yl)amino)pyridin-3-yl)piperazin-1-yl)acetamido)spiro[3.3]heptan-2-yl)amino)-N-(4,5-dimethyloxazol-2-yl)-6-(methylamino)nicotinamide]
- inhibition at 0.04 µM: 50 to 80%
- inhibition at 0.2 µM: 50 to 80%

SMILES: [2H]C([2H])([2H])Nc1ccc(C(=O)Nc2ccc(N(C)C)nn2)c(NC2CN(C(=O)C(F)(F)CN3CCN(c4ccc(Nc5ncc6c(C)c(C(C)=O)c(=O)n(C7CCCC7)c6n5)nc4)CC3)C2)n1 [CPD-248, 2-((1-(3-(4-(6-((6-acetyl-8-cyclopentyl-5-methyl-7-oxo-7,8-dihydropyrido[2,3-d]pyrimidin-2-yl)amino)pyridin-3-yl)piperazin-1-yl)-2,2-difluoropropanoyl)azetidin-3-yl)amino)-N-(6-(dimethylamino)pyridazin-3-yl)-6-((methyl-d3)amino)nicotinamide]
- inhibition at 0.04 µM: < 30%
- inhibition at 0.2 µM: < 30%

SMILES: [2H]C([2H])([2H])Nc1ccc(C(=O)Nc2ccc(N(C)C)nn2)c(NC2CC3(C2)CN(C(=O)C(F)(F)CN2CCN(c4ccc(Nc5ncc6c(C)c(C(C)=O)c(=O)n(C7CCCC7)c6n5)nc4)CC2)C3)n1 [CPD-249, 2-((2-(3-(4-(6-((6-acetyl-8-cyclopentyl-5-methyl-7-oxo-7,8-dihydropyrido[2,3-d]pyrimidin-2-yl)amino)pyridin-3-yl)piperazin-1-yl)-2,2-difluoropropanoyl)-2-azaspiro[3.3]heptan-6-yl)amino)-N-(6-(dimethylamino)pyridazin-3-yl)-6-((methyl-d3)amino)nicotinamide]
- inhibition at 0.04 µM: 50 to 80%
- inhibition at 0.2 µM: 50 to 80%

SMILES: CC(=O)c1c(C)c2cnc(Nc3ccc(N4CCN(CC(=O)NCCC5CC(Nc6cc(Cl)ccc6C(=O)Nc6ccc(C)c(C7CC7)n6)C5)CC4)cn3)nc2n(C2CCCC2)c1=O (stereo not drawn) [CPD-255, 2-((3-(2-(2-(4-(6-((6-Acetyl-8-cyclopentyl-5-methyl-7-oxo-7,8-dihydropyrido[2,3-d]pyrimidin-2-yl)amino)pyridin-3-yl)piperazin-1-yl)acetamido)ethyl)cyclobutyl)amino)-4-chloro-N-(6-cyclopropyl-5-methylpyridin-2-yl)benzamide]
- inhibition at 0.04 µM: < 30%
- inhibition at 0.2 µM: 50 to 80%

SMILES: CC(=O)c1c(C)c2cnc(Nc3ccc(N4CCN(C(=O)NCCC5CC(Nc6cc(Cl)ccc6C(=O)Nc6ccc(C)c(C7CC7)n6)C5)CC4)cn3)nc2n(C2CCCC2)c1=O (stereo not drawn) [CPD-256, 4-(6-((6-Acetyl-8-cyclopentyl-5-methyl-7-oxo-7,8-dihydropyrido[2,3-d]pyrimidin-2-yl)amino)pyridin-3-yl)-N-(2-(3-((5-chloro-2-((6-cyclopropyl-5-methylpyridin-2-yl)carbamoyl)phenyl)amino)cyclobutyl)ethyl)piperazine-1-carboxamide]
- inhibition at 0.04 µM: < 30%
- inhibition at 0.2 µM: < 30%

SMILES: CC(=O)c1c(C)c2cnc(Nc3ccc(N4CCN(CC(=O)NCCC5CC(Nc6cc(Cl)ccc6C(=O)Nc6ccc(N(C)C)nn6)C5)CC4)cn3)nc2n(C2CCCC2)c1=O (stereo not drawn) [CPD-257, 2-((3-(2-(2-(4-(6-((6-Acetyl-8-cyclopentyl-5-methyl-7-oxo-7,8-dihydropyrido[2,3-d]pyrimidin-2-yl)amino)pyridin-3-yl)piperazin-1-yl)acetamido)ethyl)cyclobutyl)amino)-4-chloro-N-(6-(dimethylamino)pyridazin-3-yl)benzamide]
- inhibition at 0.04 µM: < 30%
- inhibition at 0.2 µM: 30 to 50%

SMILES: CC(=O)c1c(C)c2cnc(Nc3ccc(N4CCN(CC(=O)NCCC5CC(Nc6cc(F)ccc6C(=O)Nc6ccc(N(C)C)nn6)C5)CC4)cn3)nc2n(C2CCCC2)c1=O (stereo not drawn) [CPD-258, 2-((3-(2-(2-(4-(6-((6-Acetyl-8-cyclopentyl-5-methyl-7-oxo-7,8-dihydropyrido[2,3-d]pyrimidin-2-yl)amino)pyridin-3-yl)piperazin-1-yl)acetamido)ethyl)cyclobutyl)amino)-N-(6-(dimethylamino)pyridazin-3-yl)-4-fluorobenzamide]
- inhibition at 0.04 µM: 30 to 50%
- inhibition at 0.2 µM: 50 to 80%

SMILES: CC(=O)c1c(C)c2cnc(Nc3ccc(N4CCN(CC(=O)NC5CC6(C5)CC(Nc5cc(Cl)ccc5C(=O)Nc5cc(C)on5)C6)CC4)cn3)nc2n(C2CCCC2)c1=O (stereo not drawn) [CPD-259, 2-((6-(2-(4-(6-((6-acetyl-8-cyclopentyl-5-methyl-7-oxo-7,8-dihydropyrido[2,3-d]pyrimidin-2-yl)amino)pyridin-3-yl)piperazin-1-yl)acetamido)spiro[3.3]heptan-2-yl)amino)-4-chloro-N-(5-methylisoxazol-3-yl)benzamide]
- inhibition at 0.04 µM: < 30%
- inhibition at 0.2 µM: 30 to 50%
